Laboratory results reported in patent publication EP0465913B1, “Diaminotrifluoromethylpyrimidine derivatives, process for their production and phospholipase A2 inhibitor containing them” (ISHIHARA SANGYO KAISHA, LTD., priority 1990, dated 1992).
Read-outs that look alike come from different tables or passages of the source.

Legend:
[1] = molecular target: T1, Porcine pancreatic phospholipase A2 (Sus scrofa, UniProt P00592); experiment: Phospholipase A2 inhibitory activity, method A (egg yolk lecithin substrate); assay type: biochemical; conditions: 1,000 ppm, 37°C for 30 minutes, read-out: % inhibition of PLA2 (1,000 ppm)
T1 construct: purchased Boehringer Mannheim·Yamanouchi K.K. 161454·122416
T1 sequence (P00592 23-146): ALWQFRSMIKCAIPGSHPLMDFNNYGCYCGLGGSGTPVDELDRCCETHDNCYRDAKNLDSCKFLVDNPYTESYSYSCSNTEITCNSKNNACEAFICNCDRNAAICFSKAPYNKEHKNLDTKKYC
Procedure: To 10 mg of egg yolk lecithin (manufactured by Wako Pure Chemical Industries Ltd.), 1 ml of glycerine, 2 ml of a 50 mM Tris-HCl buffer solution (pH7.5) [Tris(hydroxymethyl)aminomethane (manufactured by Nacalai Tesque K.K.) was adjusted to pH7.5 with hydrochloric acid], 0.5 ml of a 150 mM calcium chloride solution (calcium chloride was dissolved in a 50 mM Tris-HCl buffer solution) and 0.5 ml of a 0.05% Triton-X100 (manufactured by Nacalai Tesque K.K.) solution (Triton-X100 was dissolved in a 50 mM Tris-HCl buffer solution), were added and dispersed by an agate mortar or dispersed by an ultrasonic processor (Model W-225, manufactured by Heat System-Ultrasonics, Inc.) for 5 minutes (30W) to obtain a substrate.
(§1) Porcine pancreatic phospholipase A2 [(161454·122416) manufactured by Boehringer Mannheim·Yamanouchi K.K.] was used.
To a 96 well microtitration plate (flat bottom, manufactured by Sumitomo Bakelite Medical Co., Ltd.), 40 µl of the substrate, 5 µl of a solution prepared by dissolving 10 mg of a test compound in 500 µl of dimethylsulfoxide, followed by an addition of 500 µl of a 50 mM Tris-HCl buffer solution, and 5 µl of an enzyme solution of 20 ng/ml (prepared by diluting the enzyme in a 50 mM Tris-HCl buffer solution), were added and reacted at 37°C for 30 minutes. After termination of the reaction, the released free fatty acid was quantitatively analyzed in accordance with the ACS-ACOD (acyl CoA synthetase-acyl CoA oxidase) method [a kit of NEFA C test wako (manufactured by Wako Pure Chemical Industries, Ltd.) was used]. The quantitative analysis was made by means of Microplate ELISA Reader (Model 2550EIA Reader, manufactured by Bio-Rad Laboratories) at a wavelength of 540 nm. Separately, such experiments as mentioned above, were carried out at various concentrations (2 µg/ml, 1 µg/ml and 0.5 µg/ml) of phospholipase A2 without a test compound. Then, the concentration of the free fatty acid versus the concentration of phospholipase A2 was plotted.
(§2) From this standard curve, the apparent concentration of phospholipase A2 in the case with a test compound, was read. Then, the percent inhibition of the enzyme was calculated by the following formula. Percent inhibition (%) = (l -(A)/(B)) x 100 [formula] • A: Apparent enzyme concentration when a test compound is added. • B: True enzyme concentration when a test compound is added.

[2] = tested on: experimental acute pancreatitis model; experiment: Effects against acute pancreatitis (Test Example 8, closed duodenal loop method, lesion scores); assay type: in vivo, Crj-CD male rats; conditions: sodium salt, 6 hours after ventrotomy; for inhibition in vivo at 10 mg/kg: Rattus norvegicus, 10 mg/kg single intravenous injection
Procedure: Using Crj-CD male rats, each test group consisted of 3 rats. An experimental acute pancreatitis model was prepared by a closed duodenal loop method under anethesia with halothane (manufactured by Hoechst Japan) and nitrous oxide (manufactured by Sumitomo Seika K.K.) applied by a general inhalation anesthesia machine (Model EM2 and halothane evaporator F-Model). Each compound (subjected to the test in the form of a sodium salt) was continuously intravenously injected into the tail vein in an amount of 0.4 ml/100 g to 0.6 ml/100 g at a rate of 0.05 ml per minute by a pump (Technicon AA II Proportioning Pump III, manufactured by Technicon Instruments Corporation) or rapidly intravenously injected. No injection was made to a control group. Gross pathological examination was conducted upon expiration of 6 hours after the ventrotomy in the case of the group to which the compound was administered. With respect to each of four lesions among pancreatic lesions i.e. petechia, ecchymosis, pancreatic necrosis and abdominal fatty necrosis, the grade and the distribution of lesions were scored with five grades of 0, 0.5, 1, 2 and 3 (severe lesions are 3). The sum of all lesions was designated as scores of pancreatitis lesions, and the sum of the score of petechia and the score of ecchymosis only was designated as scores of hemorrhagic lesions. The pancreatitis inhibition rate (%) and the hemorrhage inhibition rate (%) were obtained by the following formulas, and the results are shown in Table 13. Pancreatitis inhibition rate (%) = (l -(H)/(G)) x 100 [formula] • H: Scores of pancreatitis lesions of the group to which a test compound was administered. • G: Scores of pancreatitis lesions of the control group. Hemorrhage inhibition rate (%) = (l -(J)/(I)) x 100 [formula] • J: Scores of hemorrhagic lesions of the group to which a test compound was administered. • I: Scores of hemorrhagic lesions of the control group.

[3] = tested on: carrageenin edema; experiment: Inhibitory activity on carrageenin edema; assay type: in vivo, Wistar male rats; conditions: rat; dose 50 mg/kg orally; paw swelling volume three hours after carrageenin
Procedure: Using Wistar male rats (body weight: about 100 g), each test group consisted of 5 rats. A test compound was mixed with Tween 80 [polyoxyethylenesorbitan monooleate (manufactured by Nacalai Tesque K.K.)], and distilled water was added thereto to obtain a 2% Tween 80 suspension, or it was dissolved in the form of a salt in water to obtain an aqueous solution. Either the suspension or the aqueous solution was orally administered in an amount of 200 mg/kg, 100 mg/kg, 50 mg/kg or 25 mg/kg. One hour later, 0.1 ml of a 1% λ-carrageenin solution dissolved in a physiological saline was injected subcutaneously to the right hind paw of each rat to cause inflamation. Three hours later, the paw volume was measured by a paw volume measuring device (manufactured by Ugobasiee K.K.). A swelling volume was obtained from the difference from the value before the inflammation. Inhibition rate (%) = (l -(F)/(E)) x 100 [formula] • F: Average swelling volume in the group to which a test compound was administered. • E: Average swelling volume in the control group.

[4] = Acute toxicity, intravenous injection (LD50); assay type: in vivo; conditions: mouse, in vivo, iv, ddy male mice, sodium salt, mortality over one week
Procedure: Administration route: Intravenous injection
Using ddy male mice (body weight: 25 - 30 g), each test group consisted of 5 mice. A test compound was dissolved in the form of a sodium salt in a physiological saline or in a 5% glucose aqueous solution, and intravenously injected in an amount of 0.1 ml/10 g body weight. After the injection, the mortality rate was obtained over one week, and the median lethal dose LD50 (mg/kg) was determined.

[5] = molecular target: T1, Porcine pancreatic phospholipase A2; experiment: Phospholipase A2 inhibitory activity, method B (L-α-dipalmitoylphosphatidylcholine substrate); assay type: biochemical; conditions: 37°C for 30 minutes; for inhibition at 1000 ppm: 1,000 ppm, read-out: % inhibition of PLA2 (1,000 ppm)
Procedure: To a solution prepared by dissolving 9.2 mg of L-α-dipalmitoylphosphatidylcholine (manufactured by Nichiyu Liposome K.K.) in 0.5 ml of chloroform, a solution prepared by dissolving 32 mg of sodium cholate (manufactured by Wako Pure Chemical Industries, Ltd.) in 0.5 ml of methanol, was added, followed by mixing. The solvent of the mixture was removed under a nitrogen stream, and then 2.5 ml of a 250 mM sodium chloride solution [prepared by dissolving sodium chloride in a 100 mM Tris-HCl buffer solution {tris(hydroxymethyl)aminomethane (manufactured by Nacalai Tesque K.K.) was adjusted to pH8.0 with hydrochloric acid}] was added thereto, and the mixture was dissolved under stirring to obtain a substrate.
as §1
To a 96 well microtitration plate, 20 µl of a solution containing calcium chloride, bovine serum alubmin (manufactured by Sigma Chemical, Co.) and a Tris-HCl buffer solution (pH8.0) at concentrations of 25 mM, 4.5 mg/ml and 100 mM, respectively, 5 µl of a solution prepared by dissolving 10 mg of a test compound in 500 µl of diemthylsulfoxide, followed by an addition of 500 µl of a 200 mM Tris-HCl buffer solution, 5 µl of an enzyme solution (10 µg/ml) [prepared by dissolving the enzyme in a bovine serum alubmin solution (prepared by dissolving bovine serum alubmin in a 100 mM Tris-HCl buffer solution at a concentration of 1 mg/ml)] and 20 µl of the substrate, were added and reacted at 37°C for 30 minutes. After termination of the reaction, the released free fatty acid was quantitatively analyzed in accordance with the ACS-ACOD (acyl CoA synthetase-acyl CoA oxidase) method [a kit of NEFA C test wako (manufactured by Wako Pure Chemical Industries, Ltd.) was used]. The quantitative analysis was made by means of Microplate ELISA Reader (Model 2550EIA Reader, manufactured by Bio-Rad Laboratories) at a wavelength of 540 nm. Separately, such experiments as mentioned above, were carried out at various concentrations (1 µg/ml, 0.75 µg/ml, 0.5 µg/ml and 0.25 µg/ml) of phospholipase A2 without a test compound. Then, the concentration of the free fatty acid versus the concentration of phospholipase A2 was plotted.
as §2

[6] = read-out: Inhibition rate of hemorrhagic lesions (%)
[7] = read-out: Inhibition rate of pancreatitis lesions (%)

Row | SMILES | inhibition at 1000 ppm [1] [%] | inhibition at 1000 ppm [5] [%] | Inhibition rate (%) [3] [%] | also measured
1 | O=C(Nc1ncc(C(F)(F)F)cc1NC(=O)C(Cl)(Cl)Cl)C(F)(F)F [Compound No. 30, N-(3-trichloroacetylamino-5-trifluoromethyl-2-pyridyl)trifluoroacetamide] | 87 | – | – | –
2 | CS(=O)(=O)Nc1ncc(C(F)(F)F)cc1NC(=O)C(F)(F)C(F)(F)C(F)(F)F [compound 14] | 54 | – | – | Inhibition rate of hemorrhagic lesions (%) ([2]; 19 mg/kg continuous intravenous injection): 52%
3 | CCOCCC(=O)Nc1cc(C(F)(F)F)cnc1NC(=O)CCOCC [compound 26] | 35 | – | – | –
4 | O=C(Nc1ncc(C(F)(F)F)cc1NC(=O)C(F)(F)F)C(Cl)Cl [compound 27] | 62 | – | – | –
5 | O=C(Nc1cc(C(F)(F)F)cnc1NC(=O)C(Cl)Cl)C(Cl)Cl [compound 28] | 71 | – | 25 | –
6 | O=C(Nc1cc(C(F)(F)F)cnc1NC(=O)C(F)(F)F)C(Cl)Cl [compound 29] | 47 | – | – | –
7 | CCOC(=O)Nc1ncc(C(F)(F)F)cc1NC(=O)OCc1ccccc1 [compound 38] | 35 | – | – | –
8 | CS(=O)(=O)NNc1ncc(C(F)(F)F)cc1NC(=O)C(F)(F)C(F)(F)F [compound 40] | – | – | – | LD50 at 168 h [4]: 50 to 100 mg/kg
9 | CS(=O)(=O)Nc1ncc(C(F)(F)F)cc1NC(=O)CCCCCl [compound 46] | 47 | – | 30 | Inhibition rate of hemorrhagic lesions (%) ([2]; 46 mg/kg continuous intravenous injection): 36%
10 | CCCCS(=O)(=O)Nc1ncc(C(F)(F)F)cc1NC(=O)C(F)(F)C(F)(F)F [compound 52] | 49 | – | – | –
11 | CCCCS(=O)(=O)Nc1ncc(C(F)(F)F)cc1NC(=O)C1CCCCC1 [compound 53] | 37 | 100 | – | –
12 | CCOC(=O)NC(=S)Nc1cc(C(F)(F)F)cnc1NC [compound 54] | 37 | – | – | –
13 | CCCOC(=O)Nc1cc(C(F)(F)F)cnc1NS(=O)(=O)N(C)C [compound 114] | – | 53 | 28 | inhibition in vivo at 10 mg/kg [2, 6]: 32%; inhibition in vivo at 10 mg/kg [2, 7]: 27%
14 | CCCCCCCC(=O)Nc1cc(C(F)(F)F)cnc1NS(C)(=O)=O [compound 125] | – | 86 | 22 | –
15 | CS(=O)(=O)Nc1ncc(C(F)(F)F)cc1NC(=O)c1ccc(F)cc1 [compound 259] | – | – | 17 | % inhibition of PLA2 (1,000 ppm) [5]: 61%

More lines, main results first:

Row | inhibition at 1000 ppm [1] [%] | inhibition at 1000 ppm [5] [%] | SMILES | Inhibition rate (%) [3] [%] | also measured
16 | 50 | – | O=C(Nc1cc(C(F)(F)F)cnc1NC(=O)C(F)(F)C(F)(F)F)c1ccccc1 [compound 32] | – | –
17 | 43 | 64 | COc1ccc(C(=O)Nc2cc(C(F)(F)F)cnc2NS(C)(=O)=O)cc1 [compound 44] | – | –
18 | 48 | – | CCS(=O)(=O)Nc1ncc(C(F)(F)F)cc1NC(=O)c1ccccc1 [compound 48] | – | –
19 | 78 | – | CC(C)S(=O)(=O)Nc1ncc(C(F)(F)F)cc1NC(=O)C(Cl)(Cl)Cl [compound 50] | – | –
20 | 63 | – | CC(C)S(=O)(=O)Nc1ncc(C(F)(F)F)cc1NC(=O)C(F)(F)C(F)(F)F [compound 51] | – | –
21 | 74 | 42 | CS(=O)(=O)Nc1ncc(C(F)(F)F)cc1NC(=O)c1cccc(F)c1 [compound 58] | – | inhibition in vivo at 10 mg/kg [2, 6]: 70%; inhibition in vivo at 10 mg/kg [2, 7]: 51%
22 | – | 71 | CCCCC(CC)C(=O)Nc1cc(C(F)(F)F)cnc1NS(C)(=O)=O (stereo not drawn) [compound 65] | 37 | inhibition in vivo at 10 mg/kg [2, 6]: 67%; inhibition in vivo at 10 mg/kg [2, 7]: 74%
23 | – | 52 | CCC(C(=O)Nc1cc(C(F)(F)F)cnc1NS(C)(=O)=O)c1ccccc1 (stereo not drawn) [compound 66] | 31 | inhibition in vivo at 10 mg/kg [2, 6]: 53%; inhibition in vivo at 10 mg/kg [2, 7]: 63%
24 | – | 61 | CC(C)S(=O)(=O)Nc1ncc(C(F)(F)F)cc1NC(=O)c1cccc(F)c1 [compound 104] | 48 | –
25 | – | 58 | CCCCCC(=O)Nc1cc(C(F)(F)F)cnc1NS(=O)(=O)N(C)C [compound 110] | 25 | –
26 | – | 86 | CS(=O)(=O)Nc1ncc(C(F)(F)F)cc1NC(=O)c1ccc2c(c1)CCCC2 [compound 123] | 42 | inhibition in vivo at 10 mg/kg [2, 6]: 56%; inhibition in vivo at 10 mg/kg [2, 7]: 56%
